In publication PMC12373846, “Hemoglobin as a pseudoperoxidase and drug target for oxidative stress-related diseases” (Signal Transduction and Targeted Therapy, 2025):
Like-named read-outs stand apart in the source and are kept apart here.

What was measured:
Format in all cases: in vivo, mouse
C57BL/6J mice = test: Arterial blood P50 and Hb concentration; conditions: 0.1, 1 or 10 mg/kg, 24 h
Method: The mice were placed in a supine position to expose the thoracic area. The mice were anesthetized with 2.5% sevoflurane and placed in the supine position. Mechanical ventilation was provided via a custom-made face mask connected to a ventilator (Ventstar small animal ventilator R415, RWD) set to deliver room air (FiO2 = 0.21), with a respiratory rate of 180 breaths per min and a tidal volume of 10 μl/g body weight. Without a surgical incision, a 1 ml syringe was directly inserted into the heart to collect bright red arterial blood. Care was taken to avoid venous sampling, and blood was passively drawn into the syringe under physiological arterial pressure. The collected arterial blood was immediately analyzed via an i-STAT® 1 Analyzer (Abbott) with CG8+ cartridges to measure pO2 (mmHg), SO2 (%), and hemoglobin concentrations (g/dL). P₅₀ values were calculated via the following equation: P50=pO2×1−SO2/SO2^1/n, n=2.711

APP/PS1 mice = test: Hippocampal slice electrophysiology, APP/PS1 mice; conditions: for tonic GABA current, granule cells: Fig. S10k; for sIPSC amplitude: Fig. S10l; for sIPSC frequency: Fig. S10m
Method: The mice were deeply anesthetized with 3% isoflurane followed by decapitation. The brain was quickly excised from the skull and submerged in a chilled cutting solution that contained 234 mM sucrose, 24 mM NaHCO3, 11 mM d(+)-glucose, 10 mM MgSO4, 2.5 mM KCl, […], and 0.5 mM CaCl2. Transverse hippocampi (300 µm thick) were prepared with a vibrating microtome (PRO7N; DSK) and transferred to an artificial cerebrospinal fluid (aCSF) solution that contained 130 mM NaCl, 24 mM NaHCO3, 1.25 mM NaH2PO4, 3.5 mM KCl, 1.5 mM CaCl2, 1.5 mM MgCl2, and 10 mM d(+)-glucose, pH 7.4. The slices were incubated at RT for at least 1 h before recording. All the solutions were saturated with 95% O2 and 5% CO2.
For recording of tonic GABA currents, slices were transferred to a recording chamber that was mounted on an upright Zeiss microscope and continuously perfused with aCSF solution. The slice was viewed with a 60× water immersion objective (numerical aperture = […]) with infrared differential interference contrast optics. […] Cellular morphology was visualized by a CMOS camera (Hamamatsu Photonics, Japan) and Imaging Workbench software (INDEC Biosystems). Whole-cell patch recordings were made from […] DG granule cells of the hippocampus. The holding potential was -70 mV. The pipette resistance was typically 6–8 MΩ, and the pipette was filled with an internal solution that contained (in mM): 135 CsCl; 4 NaCl; 0.5 CaCl2; 10 HEPES; 5 EGTA; 2 Mg-ATP; 0.5 Na2-GTP; 10 QX-314; pH adjusted to 7.2 with CsOH (278 to 285 mOsmol). The baseline current before the tonic current was measured was recorded with CNQX (20 µM) and D-AP5 (50 µM). The frequency and amplitude of spontaneous inhibitory postsynaptic currents before bicuculline (50 µM) administration were detected and measured via Mini Analysis (Synaptosoft, USA).
Dentate granule cell synaptic responses were elicited at a low frequency of 0.1 Hz by stimulating perforant path fibers. The stimulation was delivered over […] at intensities ranging from 0 to 1000 μA using a constant current isolation unit. A tungsten bipolar electrode was positioned in the molecular layer to stimulate the perforant path fibers. Recordings of the evoked excitatory postsynaptic potentials (EPSPs) […], and the pipette was filled with an internal solution that contained the following (in mM): 120 potassium gluconate; 10 KCl; 1 MgCl2; 0.5 EGTA; 40 HEPES; pH adjusted to 7.2 with KOH. The spiking probability was determined by the number of spikes generated per total stimulation. Electrical signals were digitized and sampled at […] with the Digidata 1550B data acquisition system and the Multiclamp 700B Amplifier (Molecular Devices, USA) via pClamp software.

[1] = PK-BBB brain-plasma permeability; conditions: 5 mg/kg IV
Method: For the brain-plasma permeability assessment, brain tissues from male ICR mice (n = 3 per time point) were collected following euthanasia by CO2 inhalation. Brains were excised, rinsed with saline, blotted dry, and transferred into pre-labeled Eppendorf tubes (one brain per tube). Samples were snap-frozen on dry ice and stored at -80 °C until analysis. Brain samples were processed using the same LC-MS/MS method. The brain-to-plasma concentration ratio was calculated as the concentration of drug in brain tissue divided by the corresponding plasma concentration.

Compound: CNc1ccc(NCCc2ccccc2OC)cc1.Cl [KDS12025, N^1-(2-methoxyphenethyl)-N^4-methylbenzene-1,4-diamine hydrochloride salt]
- arterial oxygen affinity (P50) vs vehicle (C57BL/6J mice): did not differ
- total Hb concentration in the blood (C57BL/6J mice): unaffected
- tonic GABA current, granule cells (APP/PS1 mice; 3mpk i.p.): 4.160±0.8926
- sIPSC amplitude (APP/PS1 mice; 3mpk i.p.): 36.09±4.601
- sIPSC frequency (APP/PS1 mice; 3mpk i.p.): 1.355±0.2694
- tonic GABA current, granule cells (APP/PS1 mice; 10mpk i.p.): 3.113±0.7279
- sIPSC amplitude (APP/PS1 mice; 10mpk i.p.): 26.02±1.734
- sIPSC frequency (APP/PS1 mice; 10mpk i.p.): 1.177±0.5985
- spike probability across stimulation intensities (APP/PS1 mice; 100–1000 μA, 3 mg/kg/day ad libitum, Fig. 5l left): 0.7455±0.1216
- Brain concentration ([1]; 2 h): BLQ
- Brain concentration ([1]; 4 h): BLQ
- Brain concentration ([1]; 8 h): BLQ
- Plasma concentration ([1]; 8 h): BLQ
- concentration at 0.083 h ([1]; male, ICR, mouse, brain, 0.083 h, read-out: Brain concentration): 1680 ± 34.2 ng/g
- Kp at 0.083 h ([1]; male, ICR, mouse, brain, 0.083 h, read-out: Brain to plasma ratio (B/P)): 0.9 ± 0.17
- concentration at 0.25 h ([1]; male, ICR, mouse, brain, 0.25 h, read-out: Brain concentration): 589 ± 44.1 ng/g
- Kp at 0.25 h ([1]; male, ICR, mouse, brain, 0.25 h, read-out: Brain to plasma ratio (B/P)): 0.76 ± 0.04
- concentration at 0.5 h ([1]; male, ICR, mouse, brain, 0.5 h, read-out: Brain concentration): 234 ± 31.7 ng/g
- Kp at 0.5 h ([1]; male, ICR, mouse, brain, 0.5 h, read-out: Brain to plasma ratio (B/P)): 0.84 ± 0.19
- concentration at 1 h ([1]; male, ICR, mouse, brain, 1 h, read-out: Brain concentration): 65.6 ± 12.3 ng/g
- Kp at 1 h ([1]; male, ICR, mouse, brain, 1 h, read-out: Brain to plasma ratio (B/P)): 0.79 ± 0.25
- half-life ([1]; male, ICR, mouse, brain, mice, read-out: brain t1/2 (PK-BBB) (converted)): 14.4 min
- concentration at 0.083 h ([1]; male, ICR, mouse, plasma, 0.083 h, read-out: Plasma concentration): 1910 ± 323 ng/mL
- concentration at 0.25 h ([1]; male, ICR, mouse, plasma, 0.25 h, read-out: Plasma concentration): 782 ± 104 ng/mL
- concentration at 0.5 h ([1]; male, ICR, mouse, plasma, 0.5 h, read-out: Plasma concentration): 284 ± 45.5 ng/mL
- concentration at 1 h ([1]; male, ICR, mouse, plasma, 1 h, read-out: Plasma concentration): 84.7 ± 10.3 ng/mL
- concentration at 2 h ([1]; male, ICR, mouse, plasma, 2 h): 15.5 ± 7.09 ng/mL
- concentration at 4 h ([1]; male, ICR, mouse, plasma, 4 h): 2.99 ± 0.52 ng/mL
- AUC ([1]; male, ICR, mouse, plasma, mice, read-out: plasma AUCall (PK-BBB)): 721 ng·h/mL
- clearance ([1]; male, ICR, mouse, plasma, mice, read-out: plasma Cl (PK-BBB) (converted)): 115 mL/min/kg
- half-life ([1]; male, ICR, mouse, plasma, mice, read-out: plasma t1/2 (PK-BBB) (converted)): 39 min
- brain AUCall (PK-BBB) ([1]; mice): 437.01 ng·h/mL
- brain Cmax (PK-BBB) ([1]; mice): 1680.64 ng/mL
